This experiment relates to SH-SY5Y cells. In words: Cellular uptake inhibition (BSP pretreatment or 4 °C). It is filed as cell-based, human. The method, then:
SH-SY5Y cells were seeded on a 24-well plate (Corning Costar, no. 3524) and incubated at 37 °C for 48 h. To determine the role of membrane transporter in ALS04 retention, SH-SY5Y cells were pretreated with 250 μM sulfobromophthalein disodium (BSP; MedChemExpress, HY-D0217) at 37 °C for 20 min. Cells were then incubated with 1 μM of ALS04 and NucBlue (Invitrogen, Hoechst 33342, no. R37605) for 20 min at 37 °C. To evaluate the contribution of diffusion across the plasma membrane, cells were also incubated at 4 °C for 30 min, followed by incubation with 1 μM ALS04 at 4 °C for 20 min. After washing, the cells were imaged using BioTek Cytation 5. The fluorescence intensity of each cell was determined using ImageJ.

Each structure is given as a SMILES string.

On to `CN1/C(=C/C2=CC3=C/C(=C/c4sc5ccccc5[n+]4C)CCC3CC2)Sc2ccccc21` (centres unmarked) [ALS04], for which the “Fluorescence signal (cellular uptake) after OATP inhibitor BSP” value (250 μM BSP pretreatment 20 min, then 1 μM for 20 min, ****P ≤ 0.0001) is given as “significant reduction”. The “Cellular uptake at 4 °C” value (cells at 4 °C 30 min, then 1 μM at 4 °C for 20 min) is reported as “significantly reduced”.

The values above are taken from PMC11912748, “Image-Guided Monitoring of Mitochondria and Blood–Brain Barrier Dysfunction in Amyotrophic Lateral Sclerosis Mice” (Biomaterials Research, 2025).
